In US11179363B2, “Non-steroidal selective glucocorticoid receptor agonistic modulators (SEGRAMs) and uses thereof” (ASSOCIATION POUR LA RECHERCHE À L'IGBMC (ARI), priority 2017, dated 2021):

Legend:
[1] = test system: dorsal skin of Balb/C mice; assay: Skin epidermis atrophy after 8-day topical treatment of dorsal skin; assay type: in vivo
Excerpt: To investigate whether, similarly to Dex, a topical administration of CpdX could result in a skin atrophy, Balb/C mice were shaved on the dorsal skin. Ethanol (vehicle), Dex, CpdX or either one of its two enantiomers CpdX(eA) or CpdX(eB), as well as the deuterated form CpdX-D3 or either one of its two enantiomers CpdX-D3(eA) or CpdX-D3(eB), were topically applied onto the dorsal skin for 8 days.
Upon completion of the treatments, RNA transcripts were extracted from dorsal skin samples and the transcripts of Kindlin-1 and REDD1 genes were analyzed by q-RT-PCR. Histological and morphometric analyses of the dorsal skin were also performed.

[2] = Blood glucose and intraperitoneal glucose tolerance test (IPGTT) after three-month treatment; assay type: in vivo, B6 male mice; conditions: three months
Protocol: B6 male mice (8-week-old) were daily subjected for three months to a subcutaneous injection of either vehicle (NaCl 0.9%), Dex, CpdX, CpdX(eA), CpdX(eB), CpdX-D3, CpdX-D3(eA) or CpdX-D3(eB) (1 mg/kg body weight, diluted in vehicle). Mice were over-night-fasted. Mouse blood glucose concentration was measured before (To) and during two hours (T120) after glucose i.p. injection ([…]).

liver = assay: Fatty liver after three-month treatment (red oil staining, q-RT-PCR, plasma cholesterol and bile acids); assay type: in vivo, B6 male mice; conditions: three months
Protocol: B6 male mice (8-week-old) were daily subjected for three months to a subcutaneous injection of either vehicle (NaCl 0.9%), Dex, CpdX, CpdX(eA), CpdX(eB), CpdX-D3, CpdX-D3(eA) or CpdX-D3(eB) (1 mg/kg body weight, diluted in vehicle). Following this treatment, blood was collected at 10 a.m. by retro-orbital puncture in lithium-heparin coated vials. The plasmatic levels of total cholesterol and bile acids were determined.
Liver samples were harvested. […] RNA transcripts were extracted from liver samples and the transcripts of fatty acid synthase (FASN) and Stearoyl-CoA desaturase 1 (SCD1) genes were analyzed by q-RT-PCR.

[3] = Body weight and body composition after three-month treatment (pDEXA); assay type: in vivo, B6 male mice; conditions: s.c. 1 mg/kg daily, 3 months
Protocol: B6 male mice (8-week-old) were daily subjected for three months to a subcutaneous injection of either vehicle (NaCl 0.9%), Dex, CpdX or CpdX-D3 (1 mg/kg body weight, diluted in vehicle. A pDEXA machine was used to determine the lean mass and fat mass. The statistical significance was calculated through Krustal-Walis test followed by a Dunn's multiple comparison test, *p<0.05; **p<0.01; ***p<0.001.

adrenal glands = assay: Corticosterone synthesis and adrenal gland after three-month treatment; assay type: in vivo, B6 male mice; conditions: three months
Protocol: (§1) B6 male mice (8-week-old) were daily subjected for three months to either a subcutaneous injection of vehicle (NaCl 0.9%), Dex, CpdX, CpdX(eA), CpdX(eB), CpdX-D3, CpdX-D3(eA) or CpdX-D3(eB) (1 mg/kg body weight, diluted in vehicle).
Following this long-term treatment, blood was collected at 10 a.m. and 6 p.m. by retro-orbital puncture in lithium-heparin coated vials, and the plasmatic level of corticosterone was determined. Adrenal glands were harvested and weighted. RNA transcripts were extracted and transcripts of the Cyp11a, Cyp11b1, Cyp11b2 and HSD3β genes were analyzed by q-RT-PCR. Histological analyses of the adrenal glands were also carried out.

[4] = test system: thymus, spleen, adrenal gland and kidney; assay: Organ weights (thymus, spleen, adrenal gland, kidney) after three-month treatment; assay type: in vivo, B6 male mice; conditions: s.c. 1 mg/kg daily, three months
Protocol: as §1, with “to” for “to either”, “of either” for “of”, “vehicle). Following these treatments, four organs (thymus, spleen, adrenal gland and kidney) were harvested and weighted.” for “vehicle).”

[5] = test system: mouse tibia cortical bone and femur trabecular bone; assay: Cortical and trabecular bone formation after three-month treatment (micro-CT, Wnt16 q-RT-PCR); assay type: in vivo, B6 male mice; conditions: s.c. 1 mg/kg daily, three months
Protocol: B6 male mice (8-week-old) were daily subjected for three months to either a subcutaneous injection of vehicle (NaCl 0.9%), Dex, CpdX, CpdX(eA), CpdX(eB), CpdX-D3, CpdX-D3(eA) or CpdX-D3(eB) (1 mg/kg body weight, diluted in NaCl 0.9%).
From each animal included in the experiments, one femur and the ipsilateral tibia were dissected and preserved in 70% ethanol for further bone microstructure analysis by micro-CT. The FX Quantum micro-CT scanner (Perkin Elmer) was used to perform measurements at the distal femur and midshaft tibia. All scans were performed with an isotropic voxel size of 10 μm, 160 μA tube current and 90 kV tube voltage.
Morphological 3D measurements were performed using the CTAn software (Bruker). Cortical bone parameters, which were measured in the tibia midshaft, included measures of the bone volume fraction as compared to the total volume, cortical thickness, total area, bone area and marrow area. […] Trabecular bone parameters were measured in the distal metaphysis of the femurs and included bone volume fraction, trabecular thickness, trabecular number and trabecular spacing. […]
The statistical significance as compared to vehicle treatment was calculated through one-way ANOVA test followed by Dunn's multiple comparison test, *p<0.05; **p<0.01; ***p<0.001; ****p<0,0001.

[6] = Blood insulin, intraperitoneal insulin tolerance test (IPITT) and liver western blot after three-month treatment; assay type: in vivo, B6 male mice; conditions: three months
Protocol: B6 male mice (8-week-old) were subjected daily for three months to a subcutaneous injection of either vehicle (NaCl 0.9%), Dex, CpdX, CpdX(eA), CpdX(eB), CpdX-D3, CpdX-D3(eA) or CpdX-D3(eB) (1 mg/kg body weight, diluted in vehicle). After three months, the blood was collected at 10 a.m. by retro-orbital puncture in lithium-heparin coated vials, and the plasmatic level of insulin was determined.
For the intraperitoneal insulin tolerance test (IPITT), mice were fasted for 6 hours before test. The blood glucose concentration was measured both before (To) and during a one-hour period after insulin i.p. injection (0.75 U/kg body weight).
Following this three-month treatment, liver samples were harvested and lysed in the RIPA buffer (20 mM Tris pH 8, 150 mM NaCl, 10% glycerol, 1% NP-40 and 2 mM EDTA). Antibodies from Cell Signaling were used to assess by Western-Blotting the relative level of p-IRS1 (S318), IRS-1, p-AKT (S473) and AKT.

GR [7] = target: T1, GR (Homo sapiens, UniProt P04150); conditions: cited from earlier work
T1 sequence (P04150 1-777): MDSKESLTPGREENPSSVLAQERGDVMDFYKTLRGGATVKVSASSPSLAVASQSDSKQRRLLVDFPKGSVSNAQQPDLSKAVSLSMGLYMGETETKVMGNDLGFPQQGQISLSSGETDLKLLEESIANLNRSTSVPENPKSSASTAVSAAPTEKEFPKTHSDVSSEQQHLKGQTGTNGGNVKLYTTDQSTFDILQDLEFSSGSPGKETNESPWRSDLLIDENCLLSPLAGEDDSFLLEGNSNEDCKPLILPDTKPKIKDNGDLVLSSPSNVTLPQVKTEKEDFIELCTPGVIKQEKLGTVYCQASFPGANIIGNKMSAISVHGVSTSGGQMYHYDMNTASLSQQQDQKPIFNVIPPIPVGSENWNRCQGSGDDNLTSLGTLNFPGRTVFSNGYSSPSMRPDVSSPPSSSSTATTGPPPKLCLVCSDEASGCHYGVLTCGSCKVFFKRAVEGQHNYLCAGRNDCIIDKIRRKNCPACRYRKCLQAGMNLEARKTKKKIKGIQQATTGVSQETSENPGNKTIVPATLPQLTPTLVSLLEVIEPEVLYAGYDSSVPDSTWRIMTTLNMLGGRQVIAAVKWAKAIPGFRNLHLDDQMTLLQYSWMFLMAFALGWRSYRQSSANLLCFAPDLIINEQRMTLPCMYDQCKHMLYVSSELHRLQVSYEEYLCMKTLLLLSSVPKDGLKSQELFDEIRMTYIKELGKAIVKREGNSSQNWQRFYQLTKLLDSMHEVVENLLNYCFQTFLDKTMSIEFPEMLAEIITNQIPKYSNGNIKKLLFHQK

GR [8] = target: T2, GR (Rattus norvegicus, UniProt P06536); conditions: cited from earlier work
T2 sequence (P06536 1-795): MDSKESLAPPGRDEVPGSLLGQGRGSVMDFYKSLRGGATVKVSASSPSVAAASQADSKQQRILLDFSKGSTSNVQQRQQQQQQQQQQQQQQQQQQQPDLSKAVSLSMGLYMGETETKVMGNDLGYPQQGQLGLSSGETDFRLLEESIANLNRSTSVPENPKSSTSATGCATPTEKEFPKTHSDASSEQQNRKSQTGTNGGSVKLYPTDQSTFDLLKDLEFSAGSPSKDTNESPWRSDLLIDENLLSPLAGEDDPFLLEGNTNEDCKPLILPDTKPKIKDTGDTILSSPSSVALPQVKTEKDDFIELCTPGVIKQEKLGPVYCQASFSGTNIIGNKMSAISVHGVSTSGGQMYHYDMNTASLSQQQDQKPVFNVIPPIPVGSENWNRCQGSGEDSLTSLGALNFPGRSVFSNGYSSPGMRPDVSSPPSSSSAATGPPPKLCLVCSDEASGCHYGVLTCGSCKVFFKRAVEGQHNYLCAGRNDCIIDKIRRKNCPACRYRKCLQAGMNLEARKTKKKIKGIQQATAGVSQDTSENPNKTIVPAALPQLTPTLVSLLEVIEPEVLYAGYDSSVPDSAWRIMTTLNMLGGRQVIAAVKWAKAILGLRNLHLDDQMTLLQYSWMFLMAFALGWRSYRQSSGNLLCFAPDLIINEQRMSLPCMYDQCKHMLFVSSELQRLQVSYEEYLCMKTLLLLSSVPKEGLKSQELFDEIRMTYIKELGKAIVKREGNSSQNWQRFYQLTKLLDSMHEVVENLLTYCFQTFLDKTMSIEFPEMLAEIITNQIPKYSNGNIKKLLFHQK

C[C@@H]1C[C@H]2[C@@H]3CCC4=CC(=O)C=C[C@]4(C)[C@@]3(F)[C@@H](O)C[C@]2(C)[C@@]1(O)C(=O)CO [Dex, Dexamethasone, reference compound]
decrease of the epidermal thickness (morphometric analyses) ([1]; eight-day topical treatment): 65%
skin atrophy (histological analysis) ([1]; eight-day topical treatment): severely induces a skin atrophy
transcription of the Kindlin-1 gene (nGRE) in dorsal skin ([1]; topical 1 nmole/cm^2, 8 days): strongly decreased
transcription of the REDD1 gene (+GRE) in dorsal skin ([1]; topical 1 nmole/cm^2, 8 days): significantly increased
blood glucose level after over-night fasting ([2]; s.c. 1 mg/kg daily): significantly higher
blood glucose level during two-hour IPGTT ([2]; glucose i.p. injection): significant higher
lipid deposition in the liver (5% red oil staining) (liver; s.c. 1 mg/kg daily): marked lipid deposition
blood cholesterol and bile acids' levels (liver; 10 a.m.): clear increase
transcripts of fatty acid synthase (FASN) and Stearoyl-CoA desaturase 1 (SCD1) in liver (liver; q-RT-PCR): increase
body weight, change from baseline [3]: net loss
fat mass / fat percentage, change from baseline ([3]; pDEXA): disproportional increase
lean mass / lean percentage, change from baseline ([3]; pDEXA): decrease
cortex layers, most notably the fasciculata zone, of the adrenal glands (histology) (adrenal glands; s.c. 1 mg/kg daily): drastically decreased
transcripts of Cyp11a, Cyp11b1 and HSD3β genes in adrenal glands (corticosterone synthesis pathway) (adrenal glands; s.c. 1 mg/kg daily, q-RT-PCR): inhibited
glomerulosa zone of the adrenal cortex (histology) (adrenal glands): drastically decreased
transcript of the Cyp11b2 gene in adrenal glands (aldosterone synthesis pathway) (adrenal glands; q-RT-PCR): inhibited
plasmatic corticosterone level at 6 p.m. (adrenal glands; vs Vehicle): much lower
plasmatic corticosterone level at 10 a.m. (adrenal glands; vs Vehicle): much lower
decrease of the spleen weight [4]: more than 50%
thymus apoptosis (thymus weight) [4]: no thymus was found in sixteen out of nineteen mice
decrease of the transcription of the WNT16 gene in tibia [5]: 50%
bone volume as compared to the total volume, tibia cortical bone ([5]; micro-CT): significantly decreased
blood insulin level (hyperinsulinemia) ([6]; s.c. 1 mg/kg daily, 10 a.m.): hyperinsulinemia
phosphorylated insulin receptor substrate 1 (p-IRS1 S318) in liver extracts (western blot) [6]: decrease
phosphorylation of protein kinase B (p-AKT S473) in liver extracts (western blot) [6]: decreased
response to insulin in IPITT ([6]; insulin i.p. 0.75 U/kg): significant impaired response to insulin

C[C@@H]1C[C@H]2[C@@H]3CCC4=CC(=O)C=C[C@]4(C)[C@@]3(F)[C@@H](O)C[C@]2(C)[C@H]1C(=O)CC#N [RU24858]
dissociated profile (transrepression vs transactivation) in vitro (GR [7]): exhibit such an expected dissociated profile
dissociation upon administration in vivo (GR [8]): failed to confirm this dissociation
